Assay: DPPH (2,2-diphenyl-1-picrylhydrazyl) in vitro antioxidant test
Format: biochemical
Conditions: 517 nm; for Inhibition (radical scavenging inhibition): 0.2 mL DPPH (0.75 mM) in ethanol, 30 min incubation in the dark
Experimental: The antioxidant properties of the 8-((2-hydroxy-5-methylphenyl)diazenyl)naphthalene-1,3-disulfonic acid were studied by adding 0.2 mL DPPH (0.75 mM)) to compound 8-((2-hydroxy-5-methylphenyl)diazenyl)naphthalene-1,3-disulfonic acid (III) (304) in ethanol. After 30 min of incubation in the dark, the absorbance was read against a blank at 517 nm. Ascorbic acid (vitamin C) was used as standard antioxidants (positive control). A blank sample was prepared by 0.2 ml of DPPH in 3 ml ethanol. A negative control sample was run using ethanol instead of the sample. The radical scavenging inhibition was calculated using the following equation: […]

SMILES	Inhibition (radical scavenging inhibition) [%]	antioxidant potential compared to vitamin C (DPPH in vitro test, vitamin C as positive control)
Cc1ccc(O)c(/N=N/c2cccc3cc(S(=O)(=O)O)cc(S(=O)(=O)O)c23)c1 [Product III, 8-((2-hydroxy-5-methylphenyl)diazenyl)naphthalene-1,3-disulfonic acid]	54	high potential as an antioxidant compared to vitamin C
O=C1O[C@H]([C@@H](O)CO)C(O)=C1O [vit c, Ascorbic acid, reference compound]	74	–

From patent publication US11932594B1, “8-((2-hydroxy-5-methylphenyl)diazenyl)naphthalene-1,3-disulfonic acid as an antioxidant compound” (KING FAISAL UNIVERSITY, priority 2023, dated 2024)
